# Patent US20260256771A1, “GALUNISERTIB FOR USE IN THE TREATMENT OF ANDROGENIC ALOPECIA” (SAÚDE VIÁVEL, S.A., priority 2022, published 2026)
# Assays:
# [1] = test system: TGFβ1; settings: DP isolated from human HFs cultured ex vivo for 48 h; DHT-treated (1 μM) vs. untreated HFOCs
# Experimental: (§1) For RNA isolation and Quantitative Real-Time PCR (qPCR), Qiagen RNeasy kit (Qiagen, Germany) is used to isolate RNA. Concentration and purity are ascertained in a NanoDrop spectrophotometer. 600 ng of RNA are reverse transcribed into complementary DNA with iScript™ cDNA Synthesis Kit. Quantitative real-time polymerase chain reactions (qPCRs) are performed in a CFX384 Touch™ Real-Time PCR Detection System (Bio-Rad Laboratories). 10 μl reaction mixes are prepared consisting of iTaq™ Universal SYBR® Green Supermix (Bio-Rad Laboratories), forward and reverse primers (at 125 nM each) and cDNA (30 ng). The amplification program used is: 95° C. for 3 min, followed by 39 cycles of 95° C. for 10 s, 60° C. for 35 s, and melt curve from 55° C. to 95° C. with 0.5° C. increment for 10 s. All primers are designed to span at least one […]. Transcript levels are quantified by the 2-ΔΔCt method. ΔCt values are determined by subtracting the geometrical mean of the Ct values for GAPDH and UBQ from the mean target gene Ct value.
# (§2) Hair grafts are obtained from male patients aged between 18-55 years with informed consent. A total of 10-20 micrografts are harvested from the occipital scalp of patients diagnosed with androgenic alopecia and undergoing autologous hair transplantation by the routine FUE technique.
# [2] = test system: TGFβ3; settings: DP isolated from human HFs cultured ex vivo for 48 h; DHT-treated (1 μM) vs. untreated HFOCs
# Experimental: as §1, §2
# [3] = test system: phosphorylated SMAD2 (p-SMAD2); experiment: Western blot of phospho-SMAD2 in hair bulbs of HFOCs; format: cell-based, human; settings: untreated vs DHT-treated HFOCs, 72 h
# Experimental: For western blot, hair bulbs are dissected from HFOCs treated with DMSO, DHT and Galunisertib for 72 h. Upon rinse in PBS, hair bulbs are lysed in Laemmli buffer (without bromophenol blue) with Halt Protease Inhibitor Cocktail and Halt Phosphatase Inhibitor Cocktail, and lysates are sonicated. Lysates from 10 hair bulbs are used for each condition tested. Total extracts are then loaded in SDS-polyacrylamide gels and transferred onto nitrocellulose membranes for western blot analysis. Membranes are blocked during 1 h with TBS+5% BSA. Primary and secondary antibodies are diluted in TBS+2% BSA accordingly to Supplementary Table 1. Signal is detected using Clarity Western ECL Substrate reagent. A GS-800 calibrated densitometer with Quantity One 1-D Analysis Software 4.6 (Bio-Rad Laboratories) is used for quantitative analysis of protein levels.
# (§3) In addition, only anagen hair follicles are used.
# (§4) Hair growth percentages is normalized to day 0.
# [4] = test system: TGFβ2; experiment: qRT-PCR of TGFβ transcripts in dermal papilla isolated from HFOCs; format: cell-based, human; settings: DP isolated from human HFs cultured ex vivo for 48 h; DHT-treated (1 μM) vs. untreated HFOCs
# Text: Concentration and purity are ascertained in a NanoDrop spectrophotometer.
# as §3, §4
structure (smiles),measurement,setting,value
"C[C@]12CCC(=O)C[C@@H]1CC[C@@H]1[C@@H]2CC[C@]2(C)[C@@H](O)CC[C@@H]12 [DHT, dihydrotestosterone]",TGFβ1 transcript levels in DP,[1],remaining unchanged
same,TGFβ3 transcript levels in DP,[2],remaining unchanged
same,p-SMAD2 protein levels in hair bulbs,[3],equivalent
same,TGFβ2 transcript levels in DP,[4],slightly increased
